Peptide text beside a SMILES is read from it.
Experiments:
[1] = molecular target: T1, human calcitonin (a) receptor, BHK570 cells (Homo sapiens, UniProt P30988); experiment: Assay (II)b functional CRE-luciferase assay without albumin, human calcitonin receptor; format: cell-based; conditions: Tested without HSA; read-out: hCTR funct. EC50
T1 construct: host or cells: BHK570
T1 sequence (P30988 25-474): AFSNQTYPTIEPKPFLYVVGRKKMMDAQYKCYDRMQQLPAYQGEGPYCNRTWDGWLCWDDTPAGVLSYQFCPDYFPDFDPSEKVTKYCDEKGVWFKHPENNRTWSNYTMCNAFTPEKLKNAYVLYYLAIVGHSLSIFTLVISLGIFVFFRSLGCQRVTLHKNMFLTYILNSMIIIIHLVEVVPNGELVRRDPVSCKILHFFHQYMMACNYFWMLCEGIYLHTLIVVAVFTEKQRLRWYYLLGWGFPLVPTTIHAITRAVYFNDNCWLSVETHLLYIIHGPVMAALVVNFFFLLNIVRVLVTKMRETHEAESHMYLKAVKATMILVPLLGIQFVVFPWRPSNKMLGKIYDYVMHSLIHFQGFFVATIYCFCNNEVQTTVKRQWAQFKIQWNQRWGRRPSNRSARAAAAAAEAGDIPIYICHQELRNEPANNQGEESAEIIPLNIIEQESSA
How it was run: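 BHK570 cells stably expressing human calcitonin receptor with CRE-luciferase reporter, plus RAMP-3 for the amylin 3(a) line. Cells stimulated 3 hours at 37 °C in albumin-free assay medium (0.1% ovalbumin, 10 mM Hepes pH 7.4); cAMP-driven luciferase read by luminescence.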

[2] = molecular target: T2, human calcitonin receptor, BHK tk'ts 13 cells (Homo sapiens, UniProt P30988); experiment: Assay (VIIa) binding to the human calcitonin receptor (whole cell); conditions: read-out: hCT-R binding IC50
T2 construct: expressed in transfected cells; host or cells: BHK tk'ts 13
T2 sequence (P30988 25-474): T1 sequence (P30988 25-474)
Experimental: Assay (VIIa)—Determination of Binding to the Human Calcitonin Receptor (Whole Cell Binding)
The binding assay was performed using a BHK tk'ts 13 cell line was stably transfected with the human calcitonin receptor, and a CRE-responsive luciferase reporter gene.
The day before the assay the cells were Seeded into Poly-D-Lysin coated 384W Opaque White, BD BioCoat plates (10000 cells/well) and Incubated overnight at 37° C., 5% CO2, 95% humidity. Then, the cells were washed in HBSS (4° C.), and incubated overnight at 4° C. in a binding buffer containing test compounds, 50 pM [125I]-human calcitonin, media w/o phenol red, 500 ml 0.1% ovalbumin (5 ml 10% ovalbumin) 10 mM Hepes (5 ml 1M) 1× Glutamin (5 ml 100×) 1% P/S (5 ml 100%) Complete (1 tablet/50 ml) 0.1% Pluronic F68®. The morning after, the plates were washed three times in HBSS (4° C.), and lyzed in Lysis buffer (0.1 M NaOH), 1% SDS. Scintillation cocktail (MicroScint40®) was added and the plates were shaken at 500 rpm for a short period. The plate was incubated at room temperature in the dark for 1 hour and Read on a TopCounter™ (Packard). The IC50 was calculated using (one site binding competition analysis) GraphPad Prism5 as a measure of receptor affinity. Assay (VIII)—Determination of Binding to the Rat Calcitonin Receptor

[3] = molecular target: T3, human amylin receptor (human calcitonin receptor + human RAMP3), BHK tk'ts 13 cells (Homo sapiens, UniProt O60896+P30988); experiment: Assay (Va) binding to the human amylin receptor (whole cell); conditions: read-out: hAmylin-R binding IC50
T3 construct: expressed in transfected cells; host or cells: BHK tk'ts 13
T3 sequence (O60896 24-148, one chain of several): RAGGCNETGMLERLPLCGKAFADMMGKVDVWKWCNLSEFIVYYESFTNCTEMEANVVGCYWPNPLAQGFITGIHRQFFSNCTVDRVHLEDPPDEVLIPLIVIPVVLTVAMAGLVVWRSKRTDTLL
Experimental: The day before the assay the cells were Seeded into Poly-D-Lysin coated 384W Opaque White, BD BioCoat plates (10000 cells/well) and Incubated overnight at 37° C., 5% CO2, 95% humidity.

[4] = molecular target: T4, human amylin 3(a) receptor (human calcitonin receptor + RAMP-3), BHK570 cells (Homo sapiens, UniProt O60896+P30988); experiment: Assay (II)b functional CRE-luciferase assay without albumin, human amylin receptor; format: cell-based; conditions: Tested without HSA; read-out: hAmylin-R funct. EC50
T4 construct: host or cells: BHK570
T4 sequence (O60896 24-148, one chain of several): as above
How it was run: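 Agonism measured as CRE-driven luciferase luminescence after 3 h sample exposure at 37 °C, without albumin (0.1% ovalbumin, Hepes pH 7.4 medium). Reporter cells: BHK570 carrying human calcitonin receptor, co-transfected with RAMP-3 to form the amylin 3(a) receptor.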

[5] = Assay (IV) determination of solubility; format: physicochemical
Experimental: Assay (IV)—Determination of Solubility
The mimylin peptide was dissolved in water at ˜500 nmol/ml and mixed 1:1 with a series of buffers (100 mM glycylglycine pH 3.0, 100 mM glycylglycine pH 4.0, 100 mM glycylglycine pH 5.0, 100 mM bistrispropane pH 6.0, 100 mM bistrispropane pH 6.5, 100 mM bistrispropane pH 7.0, 100 mM bistrispropane pH 7.5, 100 mM bistrispropane pH 8.0).

[6] = molecular target: T4, human amylin 3(a) receptor (human calcitonin receptor + RAMP-3), BHK570 cells; experiment: Assay (II)a functional CRE-luciferase assay with albumin, human amylin receptor; format: cell-based; conditions: Tested with HSA; read-out: hAmylin-R funct. EC50
From the text: Assay(II)a—Human Calcitonin and Amylin Receptor Assay
1. Luciferase Assay Outline
Activation of calcitonin and amylin (co-expression of calcitonin receptor and receptor activity modifying proteins (RAMP)) receptors lead to increased intracellular concentrations of cAMP. Consequently, transcription is activated by promoters containing multiple copies of the cAMP response element (CRE). It is thus possible to measure amylin activity by the use of a CRE luciferase reporter gene introduced into BHK cells also expressing calcitonin or amylin receptors.
2. Construction of Calcitonin (a)—and Amylin 3(a)—Receptor/CRE-Luc Cell Line.
A BHK570 cell line was stably transfected with the human calcitonin receptor and a CRE-responsive luciferase reporter gene. The cell line was further transfected with RAMP-3, using standard methods. This turns the calcitonin receptor into an amylin 3(a) receptor. Methotrexate, Neomycin, and Hygromycin are selection markers for luciferase, the calcitonin receptor, and RAMP-3, respectively.
To perform activity assays, BHK calcitonin (a) receptor- or amylin 3(a)-receptor/CRE-luc cells were seeded in white 96 well culture plates at a density of about 20.000 cells/well. […] After incubation overnight at 37° C. and 5% CO2, the growth medium was replaced by 50 μl/well assay medium (DMEM (without phenol red), Glutamax™, 10% FBS, and 10 mM Hepes, pH 7.4). Further, 50 μl/well of standard or sample in assay buffer were added.
After 3 hours incubation at 37° C. and 5% CO2, the assay medium with standard or sample were removed and replaced by 100 μl/well PBS. Further, 100 μl/well LucLite™ was added. The plates were sealed and incubated at room temperature for 30 minutes. Finally, luminescence was tested on a TopCounter (Packard) in SPC (single photon counting) mode.

[7] = molecular target: T5, human calcitonin receptor (Homo sapiens, UniProt P30988); experiment: Assay (VII) binding to the human calcitonin receptor (membrane, SPA); conditions: membranes, 125I-Calcitonin; read-out: hCT-R binding IC50
T5 construct: expressed in transfected cells; host or cells: BHK tk'ts 13
T5 sequence (P30988 25-474): T1 sequence (P30988 25-474)
Experimental: Assay (VII)—Determination of Binding to the Human Calcitonin Receptor (Membrane)
The binding assay was performed using scintillation proximity assay (SPA) beads (RPNQ0001) from PerkinElmer® and cell membranes prepared from a BHK tk'ts 13 cell line was stably transfected with the human calcitonin receptor and a CRE-responsive luciferase reporter gene. Membranes were prepared in the following way; the cells were rinsed with PBS and incubated with Versene for approximately 5 min before harvesting. The cells were flushed with PBS and the cell-suspension was centrifuged for 5 min at 1000 rpm. Cells were homogenized in a buffer containing 20 mM Na-HEPES and 10 mM EDTA (pH 7.4) and centrifuged at 20.000 rpm for 15 min. The resulting pellet was resuspended, homogenized and centrifuged (20.000 rpm, 15 min) in a buffer containing 20 mM Na-HEPES and 0.1 mM EDTA (pH 7.4, buffer 2). The resulting pellet was resuspended in buffer 2 and protein concentration was tested (BCA protein Assay, Pierce). The homogenate was kept cold during the whole procedure. The membranes were kept at −80° C. until use. Assay was performed in a 384 well Optiplate (PerkinElmer®) in a total volume of 40 ul. Membranes were mixed with SPA beads. Final concentration of membranes 35 ng/μL final and Final concentration of SPA beads was 0.05 mg/well. Test-compounds were dissolved in DMSO and further diluted in assay buffer (50 mM Hepes, pH 7.4, 1 mM CaCl2, 5 mM MgCl2, 0.1% OA and 0.02% Tween20). Radioligand ^125I-Calcitonin was dissolved in assay buffer and added to the Optiplate at a final concentration of 75 pM/well (approx. 30.000 cpm/10 ul). The final mixture was incubated for 120 min with shaking at 400 rpm at 25° C. prior to centrifugation (1500 rpm, 10 min). Samples were analyzed on TopCounter™ (Packard). The IC50 was calculated using (one site binding competition analysis) GraphPad Prism5 as a measure of receptor affinity.

Row | EC50 [1] [nM] | IC50 [2] [nM] | IC50 [3] [nM] | EC50 [4] [nM] | solubility at 18 h ([5]; bistrispropane buffer, pH 6.5) [µM] | solubility at 18 h ([5]; bistrispropane buffer, pH 7.5) [µM] | solubility at 18 h ([5]; bistrispropane buffer, pH 6.0) [µM] | solubility at 18 h ([5]; bistrispropane buffer, pH 7.0) [µM] | solubility at 18 h ([5]; bistrispropane buffer, pH 8.0) [µM] | solubility at 18 h ([5]; glycylglycine buffer, pH 3.0) [µM] | solubility at 18 h ([5]; glycylglycine buffer, pH 4.0) [µM] | solubility at 18 h ([5]; glycylglycine buffer, pH 5.0) [µM] | EC50 [6] [nM] | IC50 [7] [nM] | SMILES
1 | 0.002 | 0.481 | 0.469 |  |  |  |  |  |  |  |  |  |  |  | CC(C)C[C@H](NC(=O)[C@H](C)NC(=O)[C@H](C)NC(=O)[C@@H](NC(=O)[C@H](CO)NC(=O)[C@H](CC(C)C)NC(=O)[C@H](CCC(=O)O)NC(=O)[C@H](CO)NC(=O)[C@H](C)NC(=O)[C@@H](N)CCC(=O)O)[C@@H](C)O)C(=O)NCC(=O)N[C@@H](CCCNC(=N)N)C(=O)N[C@@H](CC(C)C)C(=O)N[C@@H](CO)C(=O)N[C@@H](C)C(=O)N[C@@H](CCC(=O)O)C(=O)N[C@@H](CC(C)C)C(=O)N[C@@H](Cc1c[nH]cn1)C(=O)N[C@@H](CCC(=O)O)C(=O)N[C@@H](CC(C)C)C(=O)N[C@@H](C)C(=O)N[C@H](C(=O)N[C@@H](CC(C)C)C(=O)N1CCC[C@H]1C(=O)N[C@@H](CCCNC(=N)N)C(=O)N[C@H](C(=O)N[C@@H](CCC(=O)O)C(=O)N[C@H](C(=O)NCC(=O)N[C@@H](CO)C(=O)NCC(=O)N[C@@H](CO)C(=O)N1CCC[C@H]1C(N)=O)[C@@H](C)O)[C@@H](C)O)[C@@H](C)O [22bb, H—EASELSTAALGRLSAELHELATLPRTETGSGSP—NH2] (H-EASELSTAALGRLSAELHELATLPRTETGSGSP-NH2)
2 |  | 0.431 | 0.511 | 0.003 |  |  |  |  |  |  |  |  |  |  | CC(C)C[C@H](NC(=O)[C@H](C)NC(=O)[C@H](C)NC(=O)[C@@H](NC(=O)[C@H](CO)NC(=O)[C@H](CC(C)C)NC(=O)[C@H](CCC(=O)O)NC(=O)[C@H](CO)NC(=O)[C@H](C)NC(=O)[C@@H](N)CCC(=O)O)[C@@H](C)O)C(=O)NCC(=O)N[C@@H](CCCNC(=N)N)C(=O)N[C@@H](CC(C)C)C(=O)N[C@@H](CO)C(=O)N[C@@H](C)C(=O)N[C@@H](CCC(=O)O)C(=O)N[C@@H](CC(C)C)C(=O)N[C@@H](Cc1c[nH]cn1)C(=O)N[C@@H](CCC(=O)O)C(=O)N[C@@H](CC(C)C)C(=O)N[C@@H](C)C(=O)N[C@H](C(=O)N[C@@H](CC(C)C)C(=O)N1CCC[C@H]1C(=O)N[C@@H](CCCNC(=N)N)C(=O)N[C@H](C(=O)N[C@@H](CCC(=O)O)C(=O)N[C@H](C(=O)NCC(=O)N1CCC[C@H]1C(=O)N[C@@H](CCC(=O)O)C(=O)N[C@@H](CO)C(=O)N1CCC[C@H]1C(N)=O)[C@@H](C)O)[C@@H](C)O)[C@@H](C)O [Ex. #1, mimylin] (H-EASELSTAALGRLSAELHELATLPRTETGPESP-NH2)
3 | 0.03 |  |  | 0.053 | ≥ 200 | ≥ 200 | ≥ 200 | ≥ 200 | ≥ 200 | ≥ 200 | ≥ 200 | ≥ 200 | 0.164 | 0.07 | CC(=O)N[C@@H](C)C(=O)N[C@@H](CO)C(=O)N[C@@H](CCC(=O)O)C(=O)N[C@@H](CC(C)C)C(=O)N[C@@H](CO)C(=O)N[C@H](C(=O)N[C@@H](C)C(=O)N[C@@H](C)C(=O)N[C@@H](CC(C)C)C(=O)NCC(=O)N[C@@H](CCCNC(=N)N)C(=O)N[C@@H](CC(C)C)C(=O)N[C@@H](CO)C(=O)N[C@@H](C)C(=O)N[C@@H](CCC(=O)O)C(=O)N[C@@H](CC(C)C)C(=O)N[C@@H](Cc1c[nH]cn1)C(=O)N[C@@H](CCC(=O)O)C(=O)N[C@@H](CC(C)C)C(=O)N[C@@H](C)C(=O)N[C@H](C(=O)N[C@@H](CC(C)C)C(=O)N1CCC[C@H]1C(=O)N[C@@H](CCCNC(=N)N)C(=O)N[C@H](C(=O)N[C@@H](CCCCNC(=O)CC[C@H](NC(=O)CCCCCCCCCCCCCCCCCCC(=O)O)C(=O)O)C(=O)N[C@H](C(=O)NCC(=O)N[C@@H](CO)C(=O)NCC(=O)N[C@@H](CO)C(=O)N1CCC[C@H]1C(N)=O)[C@@H](C)O)[C@@H](C)O)[C@@H](C)O)[C@@H](C)O [compound 71, [N-terminal(acetyl), des1, 27K(C20 diacid-gGlu), 30S, 31G]mimylin]

Reference: patent US9593149B2, “Amylin and calcitonin receptor agonist” (Novo Nordisk A/S, priority 2014, dated 2017)
